Values after ≈ are worked out from the molar mass of the structure shown. Like-named read-outs stand apart in the source and are kept apart here. Numbered stars: 1 amine (or outer) side, 2 acyl side, 3 side chain; on linkers, the order of the positions; unused ones are H or OH. Square brackets hold non-standard residues; d marks the D form. Peptide text beside a SMILES is read from it. * marks the point of attachment. X1 = CC[C@@H](C)[C@@H](O[*:1])C(=O)[*:2]; NMeVal(β-OH) = CN[C@H](C(=O)O)C(C)(C)O; aIle = CC[C@@H](C)[C@H](N)C(=O)O; Cyclohexylmethyl = C1CCC(C*)CC1; NMeV = CN[C@H](C(=O)O)C(C)C; dNMeA = CN[C@H](C)C(=O)O

For data set [1] the following is noted: from H-aIle-MeVal-Leu-βHOMeVal-dHmp-MeVal-Tyr(c-C6H11-CH2)-dMeAla-Pro-OH; amide bond; 27-membered ring; PyBroP/DIEA; CH2Cl2; 1.0 mM.
Data set [2] deals with Candida albicans TIMM0136. Description: MIC by agarose plate dilution method. Format: cell-based. Conditions: saburo-dextrose agarose culture, 30° C., 2 days. How it is done:
(§1) MIC was measured by agarose plate dilution method (cultivated at 30° C. for 2 days) using saburo-dextrose agarose culture (glucose 2 W/V %, polipeptone 1 W/V %, agarose 1.5 W/V %). Control was Aureobasidin A (AbA).

Data set [3] deals with Candida albicans TIMM0171. Description: MIC by agarose plate dilution method. It counts as cell-based. Conditions: saburo-dextrose agarose culture, 30° C., 2 days. How it is done:
as §1

For data set [4], the system named is Candida glabrata TIMM1062. Description: MIC by agarose plate dilution method. It counts as cell-based. The following applies: saburo-dextrose agarose culture, 30° C., 2 days. Here is the method: as §1
The subject of data set [5] is Candida kefyr TIMM0301. Description: MIC by agarose plate dilution method. Format: cell-based. The following applies: saburo-dextrose agarose culture, 30° C., 2 days. Here is the method:
as §1

Data set [6] relates to Aspergillus fumigatus TIMM2766. It counts as cell-based. How it is done:
as §1

For data set [7], the system named is Cryptococcus neoformans TIMM0354. It counts as cell-based. How it is done: as §1

By MIC is commonly meant the least concentration at which growth counts as inhibited. High values mean a less susceptible organism, low ones a more susceptible organism. In turn, `CC[C@@H](C)[C@@H]1NC(=O)[C@@H]2CCCN2C(=O)[C@@H](C)N(C)C(=O)[C@H](Cc2ccc(OCC3CCCCC3)cc2)NC(=O)[C@H](C(C)C)N(C)C(=O)[C@@H]([C@H](C)CC)OC(=O)[C@H](C(C)(C)O)N(C)C(=O)[C@H](CC(C)C)NC(=O)[C@H](C(C)C)N(C)C1=O` [Compound 12, cyclo(L -aIle-L -MeVal-L -Leu-L -βHOMeVal-D -Hmp-L -MeVal-L -Tyr(c-C6 H11 --CH2 --)-D -MeAla-L -Pro)] (cyclo([aIle][NMeV]L[NMeVal(β-OH)][X1][NMeV]Y(Cyclohexylmethyl)[dNMeA]P)) had a ring closure, isolated yield in data set [1] of 52.3%. Further, the MIC was 0.10 µg/mL (≈ 0.0879 µM) in data set [2]; 0.39 µg/mL (≈ 0.343 µM) in data set [3]; 0.39 µg/mL (≈ 0.343 µM) in data set [4]; 1.56 µg/mL (≈ 1.37 µM) in data set [5]; 1.56 µg/mL (≈ 1.37 µM) in data set [6] (Aspergillus fumigatus TIMM2766, saburo-dextrose agarose culture, 30° C., 2 days); 1.56 to 25 µg/mL in data set [6] (TIMM2766). The MIC is 0.20 µg/mL (≈ 0.176 µM) in data set [7] (Cryptococcus neoformans TIMM0354, saburo-dextrose agarose culture, 30° C., 2 days) and 0.10 to 0.39 µg/mL in data set [7] (TIMM0354). The “activity for Cryptococcus compared with Aureobasidin A” value in data set [7] (in words) was “stronger activity than Aureobasidin A”.

For the origin of these results see patent publication US5698670A, “Aureobasidins” (priority 1993, dated 1997).
